Experimental data from US10806785B2, “Immunomodulator compounds and methods of use” (Incyte Corporation, priority 2016, dated 2020).

Target: PD-1/PD-L1 (Homo sapiens (Human), UniProt Q9NZQ7)
Experiment: PD-1/PD-L1 binding assay (HTRF)
Method: The assays were conducted in a standard black 384-well polystyrene plate with a final volume of 20 μL. Inhibitors were first serially diluted in DMSO and then added to the plate wells before the addition of other reaction components. The final concentration of DMSO in the assay was 1%. The assays were carried out at 25° C. in the PBS buffer (pH 7.4) with 0.05% Tween-20 and 0.1% BSA. Recombinant human PD-L1 protein (19-238) with a His-tag at the C-terminus was purchased from AcroBiosystems (PD1-H5229). Recombinant human PD-1 protein (25-167) with Fc tag at the C-terminus was also purchased from AcroBiosystems (PD1-H5257). PD-L1 and PD-1 proteins were diluted in the assay buffer and 10 μL was added to the plate well. Plates were centrifuged and proteins were preincubated with inhibitors for 40 minutes. The incubation was followed by the addition of 10 μL of HTRF detection buffer supplemented with Europium cryptate-labeled anti-human IgG (PerkinElmer-AD0212) specific for Fc and anti-His antibody conjugated to SureLight®-Allophycocyanin (APC, PerkinElmer-AD0059H). After centrifugation, the plate was incubated at 25° C. for 60 min. before reading on a PHERAstar FS plate reader (665 nm/620 nm ratio). Final concentrations in the assay were […], 10 nM PD-L1, 1 nM europium anti-human IgG and 20 nM anti-His-Allophycocyanin. IC50 determination was performed by fitting the curve of percent control activity versus the log of the inhibitor concentration using the GraphPad Prism 5.0 software.

PD-1/PD-L1, sequence (Q9NZQ7 19-238): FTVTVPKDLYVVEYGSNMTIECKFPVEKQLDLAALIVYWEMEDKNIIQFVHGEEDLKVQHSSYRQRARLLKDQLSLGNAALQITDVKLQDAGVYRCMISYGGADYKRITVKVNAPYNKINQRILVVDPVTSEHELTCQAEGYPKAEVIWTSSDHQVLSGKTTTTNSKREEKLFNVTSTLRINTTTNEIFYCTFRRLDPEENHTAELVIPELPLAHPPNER

Row | Structure (SMILES) | IC50
1 | Cc1c(NC(=O)c2nc3c(n2C)CCN(C[C@@H](C)O)C3)cccc1-c1cccc(NC(=O)c2nc3c(n2C)CCN(C2CCC(C)(C(=O)O)CC2)C3)c1Cl (mixture of isomers) [Compound 141, (R)-4-(2-((2-chloro-3′-(5-(2-hydroxypropyl)-1-methyl-4,5,6,7-tetrahydro-1H-imidazo[4,5-c]pyridine-2-carboxamido)-2′-methyl-[1,1′-biphenyl]-3-yl)carbamoyl)-1-methyl-1,4,6,7-tetrahydro-5H-imidazo[4,5-c]pyridin-5-yl)-1-methylcyclohcxane-1-carboxylic acid] | ≤ 10 nM
2 | Cc1c(NC(=O)c2nc3c(n2C)CCN(C2CCOCC2)C3)cccc1-c1cccc(NC(=O)c2nc3c(n2C)CCN(C2CCC(C)(C(=O)O)CC2)C3)c1Cl (single isomer, unassigned) [142 (compound 142-1), 4-(2-((2-chloro-2′-methyl-3′-(1-methyl-5-(tetrahydro-2H-pyran-4-yl)-4,5,6,7-tetrahydro-1H-imidazo[4,5-c]pyridine-2-carboxamido)-[1,1′-biphenyl]-3-yl)carbamoyl)-1-methyl-1,4,6,7-tetrahydro-5H-imidazo[4,5-c]pyridin-5-yl)-1-methylcyclohexane-1-carboxylic acid] | ≤ 10 nM
3 | Cc1c(NC(=O)c2nc3c(n2C)CCN(C[C@H](C)O)C3)cccc1-c1cccc(NC(=O)c2nc3c(n2C)CCN(C2CCC(C)(C(=O)O)CC2)C3)c1Cl (single isomer, unassigned) [143 (compound 143-1)] | ≤ 10 nM
4 | Cn1c(C(=O)Nc2cccc(-c3cccc(NC(=O)c4nc5c(n4C)CCN(C4CCC(O)CC4)C5)c3Cl)c2Cl)nc2c1CCN(CC13CCC(C(=O)O)(CC1)C3)C2 (single isomer, unassigned) [183 (compound 183-1), 4-((2-(2,2′-dichloro-3′-(5-(4-hydroxycyclohexyl)-1-methyl-4,5,6,7-tetrahydro-1H-imidazo[4,5-c]pyridine-2-carboxamido)biphenyl-3-ylcarbamoyl)-1-methyl-6,7-dihydro-1H-imidazo[4,5-c]pyridin-5(4H)-yl)methyl)bicyclo[2.2.1]heptane-1-carboxylic acid] | ≤ 10 nM
5 | Cn1c(C(=O)Nc2cccc(-c3cccc(NC(=O)c4nc5c(n4C)CCN(C4CCC(O)CC4)C5)c3Cl)c2Cl)nc2c1CCN(C[C@H]1CC[C@H](C(=O)O)CC1)C2 (stereo partly drawn) [144 (compound 144-1), trans-4-((2-((2,2′-dichloro-3′-(5-(4-hydroxycyclohexyl)-1-methyl-4,5,6,7-tetrahydro-1H-imidazo[4,5-c]pyridine-2-carboxamido)-[1,1′-biphenyl]-3-yl)carbamoyl)-1-methyl-1,4,6,7-tetrahydro-5H-imidazo[4,5-c]pyridin-5-yl)methyl)cyclohexane-1-carboxylic acid] | ≤ 10 nM
6 | Cn1c(C(=O)Nc2cccc(-c3cccc(NC(=O)c4nc5c(n4C)CCN(C4CCC(O)CC4)C5)c3Cl)c2Cl)nc2c1CCN(C[C@H]1CC[C@@H](C(=O)O)CC1)C2 (stereo partly drawn) [145 (compound 145-1), cis-4-((2-((2,2′-dichloro-3′-(5-(4-hydroxycyclohexyl)-1-methyl-4,5,6,7-tetrahydro-1H-imidazo[4,5-c]pyridine-2-carboxamido)-[1,1′-biphenyl]-3-yl)carbamoyl)-1-methyl-1,4,6,7-tetrahydro-5H-imidazo[4,5-c]pyridin-5-yl)methyl)cyclohexane-1-carboxylic acid] | ≤ 10 nM
7 | Cn1c(C(=O)Nc2cccc(-c3cccc(NC(=O)c4nc5c(n4C)CCN(C4CCC(O)CC4)C5)c3Cl)c2Cl)nc2c1CCN(CC[C@H]1CC[C@H](C(=O)O)CC1)C2 (stereo partly drawn) [146 (compound 146-1), trans-4-(2-(2-((2,2′-dichloro-3′-(5-(4-hydroxycyclohexyl)-1-methyl-4,5,6,7-tetrahydro-1H-imidazo[4,5-c]pyridine-2-carboxamido)-[1,1′-biphenyl]-3-yl)carbamoyl)-1-methyl-1,4,6,7-tetrahydro-5H-imidazo[4,5-c]pyridin-5-yl)ethyl)cyclohexane-1-carboxylic acid] | ≤ 10 nM
8 | Cc1c(NC(=O)c2nc3c(n2C)CCN(C2C4CC5CC2CC(C(=O)O)(C5)C4)C3)cccc1-c1cccc(NC(=O)c2nc3c(n2C)CCN(C)C3)c1Cl (stereo not shown) [175 (compound 175-1), 4-(2-((2′-chloro-3′-(1,5-dimethyl-4,5,6,7-tetrahydro-1H-imidazo[4,5-c]pyridine-2-carboxamido)-2-methyl-[1,1′-biphenyl]-3-yl)carbamoyl)-1-methyl-1,4,6,7-tetrahydro-5H-imidazo[4,5-c]pyridin-5-yl)adamantane-1-carboxylic acid] | ≤ 10 nM
9 | Cc1c(NC(=O)c2nc3c(n2C)CCN(C2CCCCC2)C3)cccc1-c1cccc(NC(=O)c2nc3c(n2C)CCN(C2CCC(C)(C(=O)O)CC2)C3)c1Cl (stereo not shown) [Compound 139, 4-(2-((2-chloro-3-(5-cyclohexyl-1-methyl-4,5,6,7-tetrahydro-1H-imidazo[4,5-c]pyridine-2-carboxamido)-2′-methyl-[1,1′-biphenyl]-3-yl)carbamoyl)-1-methyl-1,4,6,7-tetrahydro-5H-imidazo[4,5-c]pyridin-5-yl)-1-methylcyclohexane-1-carboxylic acid] | ≤ 10 nM
10 | Cc1c(NC(=O)c2nc3c(n2C)CCN(C2CCC(O)CC2)C3)cccc1-c1cccc(NC(=O)c2nc3c(n2C)CCN(C2CCC(C)(C(=O)O)CC2)C3)c1Cl (stereo not shown) [Compound 140, 4-(2-((2-chloro-3′-(5-(4-hydroxycyclohexyl)-1-methyl-4,5,6,7-tetrahydro-1H-imidazo[4,5-c]pyridine-2-carboxamido)-2′-methyl-[1,1′-biphenyl]-3-yl)carbamoyl)-1-methyl-1,4,6,7-tetrahydro-5H-imidazo[4,5-c]pyridin-5-yl)-1-methylcyclohexane-1-carboxylic acid] | ≤ 10 nM
11 | CN1CCc2c(nc(C(=O)Nc3cccc(-c4cccc(NC(=O)c5nc6c(n5C)CCN(C[C@H]5CC[C@H](C(=O)O)CC5)C6)c4C#N)c3Cl)n2C)C1 [Compound 147, trans-4-((2-((2′-chloro-2-cyano-3′-(1,5-dimethyl-4,5,6,7-tetrahydro-1H-imidazo[4,5-c]pyridine-2-carboxamido)-[1,1′-biphenyl]-3-yl)carbamoyl)-1-methyl-1,4,6,7-tetrahydro-5H-imidazo[4,5-c]pyridin-5-yl)methyl)cyclohexane-1-carboxylic acid] | ≤ 10 nM

Further lines, results first:

Row | IC50 | Structure (SMILES)
12 | ≤ 10 nM | CN1CCc2c(nc(C(=O)Nc3cccc(-c4cccc(NC(=O)c5nc6c(n5C)CCN(CC5CCC(C)(C(=O)O)CC5)C6)c4Cl)c3Cl)n2C)C1 (single isomer, unassigned) [Compound 82-1, 4-((2-((2,2′-dichloro-3′-(1,5-dimethyl-4,5,6,7-tetrahydro-1H-imidazo[4,5-c]pyridine-2-carboxamido)-[1,1′-biphenyl]-3-yl)carbamoyl)-1-methyl-1,4,6,7-tetrahydro-5H-imidazo[4,5-c]pyridin-5-yl)methyl)-1-methylcyclohexane-1-carboxylic acid]
13 | ≤ 10 nM | Cc1c(NC(=O)c2nc3c(n2C)CCN(C)C3)cccc1-c1cccc(NC(=O)c2nc3c(n2C)CCN(CC2CCC(C)(C(=O)O)CC2)C3)c1Cl (single isomer, unassigned) [Compound 120-1, 4-((2-((2-chloro-3′-(1,5-dimethyl-4,5,6,7-tetrahydro-1H-imidazo[4,5-c]pyridine-2-carboxamido)-2′-methyl-[1,1′-biphenyl]-3-yl)carbamoyl)-1-methyl-1,4,6,7-tetrahydro-5H-imidazo[4,5-c]pyridin-5-yl)methyl)-1-methylcyclohexane-1-carboxylic acid]
14 | ≤ 10 nM | Cc1c(NC(=O)c2nc3c(n2C)CCN(C2CCC(O)CC2)C3)cccc1-c1cccc(NC(=O)c2nc3c(n2C)CCN(CC[C@H]2CC[C@H](C(=O)O)CC2)C3)c1Cl (single isomer, unassigned) [Compound 134-1, Trans-4-(2-(2-(2-chloro-3′-(5-(4-hydroxycyclohexyl)-1-methyl-4,5,6,7-tetrahydro-1H-imidazo[4,5-c]pyridine-2-carboxamido)-2′-methylbiphenyl-3-ylcarbamoyl)-1-methyl-6,7-dihydro-1H-imidazo[4,5-c]pyridin-5(4H)-yl)ethyl)cyclohexane-1-carboxylic Acid]
15 | ≤ 10 nM | Cc1c(NC(=O)c2nc3c(n2C)CCN(C2CCC(O)CC2)C3)cccc1-c1cccc(NC(=O)c2nc3c(n2C)CCN(C[C@H]2CC[C@@H](C(=O)O)CC2)C3)c1Cl (single isomer, unassigned) [Compound 138-1, cis-4-((2-((2-chloro-3′-(5-(4-hydroxycyclohexyl)-1-methyl-4,5,6,7-tetrahydro-1H-imidazo[4,5-c]pyridine-2-carboxamido)-2′-methyl-[1,1′-biphenyl]-3-yl)carbamoyl)-1-methyl-1,4,6,7-tetrahydro-5H-imidazo[4,5-c]pyridin-5-yl)methyl)cyclohexane-1-carboxylic acid]
16 | ≤ 10 nM | CN1CCc2c(nc(C(=O)Nc3cccc(-c4cccc(NC(=O)c5nc6c(n5C)CCN(CCC5CCC(C(=O)O)CC5)C6)c4Cl)c3Cl)n2C)C1 (stereo not shown) [Compound 77-1, 4-(2-(2-((2,2′-dichloro-3′-(1,5-dimethyl-4,5,6,7-tetrahydro-1H-imidazo[4,5-c]pyridine-2-carboxamido)-[1,1′-biphenyl]-3-yl)carbamoyl)-1-methyl-1,4,6,7-tetrahydro-5H-imidazo[4,5-c]pyridin-5-yl)ethyl)cyclohexane-1-carboxylic acid]
